Measured values as given in ChEMBL document CHEMBL5528003 (Eur J Med Chem, 2024).
Values after ≈ are worked out from the molar mass of the structure shown. Active and inactive are the calls of the source. The calls are words filed in the database; no cut-off is given here.

Columns and labels:
[1] = Metabolic stability in rat liver microsomes assessed as parent compound remaining incubated for 60 mins in presence of NADPH by LC-MS/MS analysis; format: ADME, Microsome; details: read-out: Stability
[2] = Metabolic stability in human liver microsomes assessed as parent compound remaining incubated for 60 mins in presence of NADPH by LC-MS/MS analysis; format: ADME, Microsome; details: read-out: Stability
Estrogen receptor = molecular target: T1, Estrogen receptor (Homo sapiens, UniProt P03372); test: Induction of Estrogen receptor degradation in wildtype human MCF7 cells assessed as reduction in estrogen receptor level incubated for 24 hrs by Western blot analysis; format: cell-based
T1 sequence (P03372 whole entry): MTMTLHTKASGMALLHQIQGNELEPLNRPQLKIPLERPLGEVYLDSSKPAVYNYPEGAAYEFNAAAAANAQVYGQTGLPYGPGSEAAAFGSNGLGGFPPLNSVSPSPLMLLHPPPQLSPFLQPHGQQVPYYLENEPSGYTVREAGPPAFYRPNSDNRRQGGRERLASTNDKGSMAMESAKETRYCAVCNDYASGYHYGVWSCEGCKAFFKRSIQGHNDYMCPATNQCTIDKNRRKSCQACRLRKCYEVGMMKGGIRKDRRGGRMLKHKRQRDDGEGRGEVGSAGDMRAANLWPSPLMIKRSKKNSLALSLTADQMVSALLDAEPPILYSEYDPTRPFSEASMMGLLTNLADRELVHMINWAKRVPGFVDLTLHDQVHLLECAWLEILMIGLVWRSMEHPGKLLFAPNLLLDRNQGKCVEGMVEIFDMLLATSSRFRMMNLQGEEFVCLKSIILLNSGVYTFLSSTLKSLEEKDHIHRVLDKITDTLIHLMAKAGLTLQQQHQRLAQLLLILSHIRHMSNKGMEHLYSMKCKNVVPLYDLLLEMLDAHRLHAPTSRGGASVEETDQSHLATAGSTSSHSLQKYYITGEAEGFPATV

MCF7 [3] = test: Induction of apoptosis in human MCF7 cells assessed as viable cells at 4 nM incubated for 24 hrs by Annexin V-FITC/PI staining based flow cytometric analysis (reference value: 93.5 %); format: functional; details: read-out: Activity
MCF7 [4] = test: Induction of apoptosis in human MCF7 cells assessed as viable cells at 20 nM incubated for 24 hrs by Annexin V-FITC/PI staining based flow cytometric analysis (reference value: 93.5 %); format: functional; details: read-out: Activity
MCF7 [5] = test: Induction of apoptosis in human MCF7 cells assessed as viable cells at 100 nM incubated for 24 hrs by Annexin V-FITC/PI staining based flow cytometric analysis (reference value: 93.5 %); format: functional; details: read-out: Activity
[6] = Half-life in Sprague-Dawley rat at 30 mg/kg, IM measured after 49 days by LC-MS/MS analysis; format: ADME, organism-based; details: in vivo, time 49 day
[7] = Tmax in Sprague-Dawley rat at 30 mg/kg, IM measured after 49 days by LC-MS/MS analysis; format: ADME, organism-based; details: in vivo, 1176 h, time 49 day
[8] = Cmax in Sprague-Dawley rat at 30 mg/kg, IM measured after 49 days by LC-MS/MS analysis; format: ADME, organism-based; details: in vivo, time 49 day
[9] = AUClast in Sprague-Dawley rat at 30 mg/kg, IM measured after 49 days by LC-MS/MS analysis; format: ADME, organism-based; details: in vivo, 1176 h, time 49 day
[10] = Apparent volume of distribution during terminal phase in Sprague-Dawley rat at 30 mg/kg, IM measured after 49 days by LC-MS/MS analysis; format: ADME, organism-based; details: in vivo, 1176 h, time 49 day
[11] = MRT in Sprague-Dawley rat at 30 mg/kg, IM measured after 49 days by LC-MS/MS analysis; format: ADME, organism-based; details: in vivo, time 49 day
[12] = Solubility of compound in long acting formulation containing ethanol, benzyl alcohol, benzyl benzoate and castor oil assessed as clear yellow oil solution at 33.69 mg incubated for 1 day by LC-MS/MS analysis; format: physicochemical; details: 24 h
[13] = Solubility of compound in long acting formulation containing ethanol, benzyl alcohol, benzyl benzoate and castor oil at 57.27 mg incubated for 1 day by LC-MS/MS analysis; format: physicochemical; details: 24 h
[14] = Solubility of compound in long acting formulation containing ethanol, benzyl alcohol, benzyl benzoate and castor oil at 28.07 mg incubated for 1 day by LC-MS/MS analysis; format: physicochemical; details: 24 h
[15] = Solubility of compound in long acting formulation containing ethanol, benzyl alcohol, benzyl benzoate and castor oil incubated for 1 days by LC-MS/MS analysis; format: physicochemical; details: 24 h; time 1 day
[16] = Drug concentration in BALB/cNj Foxn1nu/Gpt mouse plasma xenografted with human MCF-7/TAMR-1 cells at 0.8 mg, IM administered for 28 days; format: ADME, cell-free; details: time 28 day
[17] = Drug concentration in BALB/cNj Foxn1nu/Gpt mouse plasma xenografted with human MCF-7/TAMR-1 cells at 2.4 mg, IM administered for 28 days; format: ADME, cell-free; details: time 28 day
[18] = Drug concentration in BALB/cNj Foxn1nu/Gpt mouse plasma xenografted with human MCF-7/TAMR-1 cells at 7.2 mg, IM administered for 28 days; format: ADME, cell-free; details: time 28 day
[19] = Drug concentration in BALB/cNj Foxn1nu/Gpt mouse tumor xenografted with human MCF-7/TAMR-1 cells at 0.8 mg, IM administered for 28 days; format: ADME, tissue-based, Neoplasm; details: time 28 day, read-out: Ct
[20] = Drug concentration in BALB/cNj Foxn1nu/Gpt mouse tumor xenografted with human MCF-7/TAMR-1 cells at 2.4 mg, IM administered for 28 days; format: ADME, tissue-based, Neoplasm; details: time 28 day, read-out: Ct
[21] = Drug concentration in BALB/cNj Foxn1nu/Gpt mouse tumor xenografted with human MCF-7/TAMR-1 cells at 7.2 mg, IM administered for 28 days; format: ADME, tissue-based, Neoplasm; details: time 28 day, read-out: Ct
MCF7 [22] = test: Antiproliferative activity against wildtype human MCF7 cells assessed as inhibition of cell proliferation incubated for 6 days in presence of beta-estradiol by CellTiter-Glo assay; format: functional, cell-based; details: MCF7, 144 h
T47D [23] = test: Antiproliferative activity against human T47D cells assessed as inhibition of proliferation incubated for 6 days by CellTiter-Glo assay; details: 144 h
[24] = Half-life in Sprague-Dawley rat at 25 mg/kg, IM measured after 49 days by LC-MS/MS analysis; format: ADME, organism-based; details: in vivo, time 49 day
[25] = Tmax in Sprague-Dawley rat at 25 mg/kg, IM measured after 49 days by LC-MS/MS analysis; format: ADME, organism-based; details: in vivo, time 49 day
[26] = Cmax in Sprague-Dawley rat at 25 mg/kg, IM measured after 49 days by LC-MS/MS analysis; format: ADME, organism-based; details: in vivo, time 49 day
[27] = AUClast in Sprague-Dawley rat at 25 mg/kg, IM measured after 49 days by LC-MS/MS analysis; format: ADME, organism-based; details: in vivo, 1176 h, time 49 day
[28] = Apparent volume of distribution during terminal phase in Sprague-Dawley rat at 25 mg/kg, IM measured after 49 days by LC-MS/MS analysis; format: ADME, organism-based; details: in vivo, 1176 h, time 49 day
[29] = MRT in Sprague-Dawley rat at 25 mg/kg, IM measured after 49 days by LC-MS/MS analysis; format: ADME, organism-based; details: in vivo, time 49 day
T47D [30] = test: Antiproliferative activity against human T47D cells transfected with wildtype ESR1 assessed as inhibition of cell proliferation incubated for 5 days by CellTiter-Glo assay; details: 120 h
T47D [31] = test: Antiproliferative activity against human T47D cells transfected with ESR1 Y537S mutant assessed as inhibition of cell proliferation incubated for 5 days by CellTiter-Glo assay; details: 120 h
T47D [32] = test: Antiproliferative activity against human T47D cells transfected with ESR1 D538G mutant assessed as inhibition of cell proliferation incubated for 5 days by CellTiter-Glo assay; details: 120 h
[33] = Drug concentration in BALB/cNj Foxn1nu/Gpt mouse plasma xenografted with human MCF-7/TAMR-1 cells at 2.0 mg, IM administered for 28 days; format: ADME, cell-free; details: time 28 day
[34] = Drug concentration in BALB/cNj Foxn1nu/Gpt mouse tumor xenografted with human MCF-7/TAMR-1 cells at 2.0 mg, IM administered for 28 days; format: ADME, tissue-based, Neoplasm; details: time 28 day, read-out: Ct
[35] = In vivo antagonist activity at Estrogen receptor in BALB/cNj Foxn1nu/Gpt mouse xenografted with human MCF-7/TAMR-1 cells assessed as fold reduction in uterus wet weight to body weight ratio at 2.0 mg, IM administered for 28 days; format: functional; details: time 28 day
Mus musculus [36] = test: Invivo antagonist activity at Estrogen receptor in BALB/cNj Foxn1nu/Gpt mouse xenografted with human MCF-7/TAMR-1 cells assessed as single-layered cell phenotype of epithelial cells in uterus at 2.0 mg, IM administered for 28 days by H&E staining based analysis; format: functional; details: time 28.0 day
Mus musculus [37] = test: In vivo antagonist activity at Estrogen receptor in BALB/cNj Foxn1nu/Gpt mouse xenografted with human MCF-7/TAMR-1 cells assessed as reduction in ER level in tumor at 2.0 mg, IM administered for 28 days by Western blot analysis; format: functional; details: time 28.0 day
Mus musculus [38] = test: In vivo antagonist activity at Estrogen receptor in BALB/cNj Foxn1nu/Gpt mouse xenografted with human MCF-7/TAMR-1 cells assessed as reduction in PgR level in tumor at 2.0 mg, IM administered for 28 days by Western blot analysis; format: functional; details: time 28.0 day
[39] = molecular target: T2, Estrogen receptor (Homo sapiens) (UniProt P03372); details: MCF7, time <= 48.0 hrs
T2 sequence (whole entry): T1 sequence (P03372 whole entry)

[40] = molecular target: T2, Estrogen receptor (Homo sapiens); details: T47D, time <= 48.0 hrs
MCF7 [41] = details: Homo sapiens, dose 4.0 nM, time 144.0 hrs

C[C@@H]1Cc2c([nH]c3ccccc23)[C@@H](c2c(F)cc(OC3CN(CC[S+]([O-])CCCC(F)(F)C(F)(F)F)C3)cc2F)N1CC(F)(F)F (stereo partly drawn)
remaining at 1 h [1]: 53.7%
remaining at 1 h [2]: 24.9%

C[C@@H]1Cc2c([nH]c3ccccc23)[C@@H](c2c(F)cc(NC3CN(CCOCCCC(F)(F)C(F)(F)F)C3)cc2F)N1CC(F)(F)CO
DC50 (Estrogen receptor): 3.8 nM

C[C@@H]1Cc2c([nH]c3ccccc23)[C@@H](c2c(F)cc(NC3CN(CCCS(=O)(=O)CCCC(F)(F)C(F)(F)F)C3)cc2F)N1CC(F)(F)CO
remaining at 1 h [1]: 85.7%
remaining at 1 h [2]: 61%
viability at 0.004 µM (MCF7 [3]): 82.7%
viability at 0.02 µM (MCF7 [4]): 70.5%
viability at 0.1 µM (MCF7 [5]): 66.2%
half-life [6]: 14.7 days
Tmax [7]: 14 days
Cmax [8]: 41.5 ng/mL
AUClast [9]: 840.09 ng·days/mL
Vz/F [10]: 1658.37 L/kg
MRT [11]: 15.6 days
solubility [12]: Soluble
solubility [13]: Insoluble
solubility [14]: Insoluble
solubility [15]: 95.1 mg/mL (≈ 131 mM)
concentration at 672 h [16]: 14.9 ng/mL
concentration at 672 h [17]: 46.6 ng/mL
concentration at 672 h [18]: 87.7 ng/mL
concentration at 672 h [19]: 35.9 ng/mL
concentration at 672 h [20]: 154 ng/mL
concentration at 672 h [21]: 252 ng/mL

C[C@@H]1Cc2c([nH]c3ccccc23)[C@@H](c2c(F)cc(NC3CN(CC[S+]([O-])CCCC(F)(F)C(F)(F)F)C3)cc2F)N1CC(F)(F)F (stereo partly drawn)
remaining at 1 h [1]: 71.6%
remaining at 1 h [2]: 43%

C[C@@H]1Cc2c([nH]c3ccccc23)[C@@H](c2c(F)cc(NC3CN(CCCS(=O)(=O)CCCC(F)(F)C(F)(F)F)C3)cc2F)N1CC(F)(F)F
DC50 (Estrogen receptor): 10.6 nM
IC50 (MCF7 [22]): 9.7 nM
remaining at 1 h [1]: 99.1%
remaining at 1 h [2]: 71.2%

C[C@@H]1Cc2c([nH]c3ccccc23)[C@@H](c2c(F)cc(NC3CN(CCC[S+]([O-])CCCC(F)(F)C(F)(F)F)C3)cc2F)N1CC(F)(F)CO (stereo partly drawn)
DC50 (Estrogen receptor): 1.2 nM
IC50 (MCF7 [22]): 0.9 nM
remaining at 1 h [1]: 79.3%
remaining at 1 h [2]: 60.1%

C[C@]12CC[C@@H]3c4ccc(O)cc4C[C@@H](CCCCCCCCC[S+]([O-])CCCC(F)(F)C(F)(F)F)[C@H]3[C@@H]1CC[C@@H]2O (stereo partly drawn) [FULVESTRANT]
IC50 (MCF7 [22]): 0.7 nM
remaining at 1 h [1]: 9.6%
remaining at 1 h [2]: 13%
IC50 (T47D [23]): 2.3 nM
half-life [24]: 28.6 days
Tmax [25]: 0.29 days
Cmax [26]: 36.7 ng/mL
AUClast [27]: 325.96 ng·days/mL
Vz/F [28]: 2158.67 L/kg
MRT [29]: 18.3 days
IC50 (T47D [30]): 2.21 nM
IC50 (T47D [31]): 5.94 nM
IC50 (T47D [32]): 58.6 nM
solubility [15]: 53.17 mg/mL (≈ 87.6 mM)
concentration at 672 h [33]: 30.8 ng/mL
concentration at 672 h [34]: 83.4 ng/mL
fold change (FC) [35]: ~2
Activity (Mus musculus [36]): Active
Activity (Mus musculus [37]): Active
Activity (Mus musculus [38]): Active
T1/2 [39]: 0.0542 days
T1/2 [40]: 0.608 days
inhibition (MCF7 [41]): Active

C[C@@H]1Cc2c([nH]c3ccccc23)[C@@H](c2c(F)cc(NC3CN(CCC[S+]([O-])CCCC(F)(F)C(F)(F)F)C3)cc2F)N1CC(F)(F)F (stereo partly drawn)
DC50 (Estrogen receptor): 1.7 nM
IC50 (MCF7 [22]): 2.7 nM
remaining at 1 h [1]: 93.7%
remaining at 1 h [2]: 57.4%

C[C@@H]1Cc2c([nH]c3ccccc23)[C@@H](c2c(F)cc(NC3CN(CC[S+]([O-])CCCC(F)(F)C(F)(F)F)C3)cc2F)N1CC(F)(F)CO (stereo partly drawn)
remaining at 1 h [1]: 78%
remaining at 1 h [2]: 29.1%
